Legend:
[1] = tested on: luciferase protein (FLuc mRNA) expression in liver; experiment: Luciferase mRNA in vivo evaluation using lipid nanoparticle compositions; parameters: species or system mice; details: LNP with the cationic lipid, tail vein injection, ng luciferase/g liver 4 hours after administration
Procedure: (§1) A lipid of Formula (I), DSPC, cholesterol and PEG-lipid of Formula (II) are solubilized in ethanol at a molar ratio of 50:10:38.5:1.5 or 47.5:10:40.7:1.8. Lipid nanoparticles (LNP) are prepared at a total lipid to mRNA weight ratio of approximately 10:1 to 40:1. Briefly, the mRNA is diluted to 0.2 mg/mL in 10 to 50 mM citrate buffer, pH 4 to 6 or 10 to 25 mM acetate buffer, pH 4 to 6. Syringe pumps are used to mix the ethanolic lipid solution with the mRNA aqueous solution at a ratio of about 1:5 to 1:3 (vol/vol) with total flow rates above 15 mL/min. The ethanol is then removed, and the external buffer replaced with PBS by dialysis. Finally, the lipid nanoparticles are filtered through a 0.2 µm pore sterile filter.
Studies are performed in 6-8-week-old female C57BL/6 mice (Charles River) or 8-10-week-old CD-1 mice (Charles River or Inotiv) according to guidelines established by an institutional animal care committee (ACC) and the Canadian Council on Animal Care (CCAC). Varying doses of mRNA-lipid nanoparticle are systemically administered by tail vein injection and animals euthanized at a specific time point (e.g., 4 hours) post-administration. Liver and spleen are collected in pre-weighed tubes, weights determined, immediately snap frozen in liquid nitrogen, and stored at −80° C. until processing for analysis. […]

[2] = tested on: human IgG in mouse serum; experiment: Immunoglobulin G (IgG) mRNA in vivo evaluation using lipid nanoparticle compositions; parameters: species or system mice; details: LNP with the cationic lipid, 0.3 mg mRNA/kg, tail vein injection, μg IgG/mL serum 24 hours after administration
Procedure: as §1
Studies are performed in 6-8-week-old CD-1/ICR mice (Charles River or Inotiv) according to guidelines established by an institutional animal care committee (ACC) and the Canadian Council on Animal Care (CCAC). Varying doses of mRNA-lipid nanoparticle are systemically administered by tail vein injection and animals euthanized at a specific time point (e.g., 24 hours) post-administration. The whole blood is collected, and the serum subsequentially separated by centrifuging the tubes of the whole blood at 2000×g for 10 minutes at 4° C. and stored at −80° C. until use for analysis.
For immunoglobulin G (IgG) ELISA (Life Diagnostics Human IgG ELISA kit), the serum samples are diluted at 100 to 20,000 folds with 1× diluent solution. 100 μL of diluted serum is dispensed into anti-human IgG coated 96-well plate in duplicate alongside human IgG standards and incubated in a plate shaker at 150 rpm at 25° C. for 45 minutes. The wells are washed 5 times with 1× wash solution using a plate washer (400 μL/well). 100 μL of HRP conjugate is added into each well and incubated in a plate shaker at the same condition above. The wells are washed 5 times again with 1× wash solution using a plate washer (400 μL/well). 100 μL of TMB reagent is added into each well and incubated in a plate shaker at the same condition above. The reaction is stopped by adding 100 μL of Stop solution to each well. The absorbance is read at 450 nm (A450) with a microplate reader. The amount of human IgG in mouse serum is determined by plotting A450 values for the assay standard against human IgG concentration.
Representative compounds of the disclosure shown in Table 2 were formulated using the following molar ratio: 50% cationic lipid/10% distearoylphosphatidylcholine (DSPC)/38.5% Cholesterol/1.5% PEG lipid 2-[2-(ω-methoxy(polyethyleneglycohooo)ethoxy]-N,N-ditetradecylacetamide) or 47.5% cationic lipid/10% DSPC/40.7% Cholesterol/1.8% PEG lipid. Relative activity was determined by measuring the amount of human IgG […]. The activity was compared at a dose of 1.0 or 0.3 mg mRNA/kg and expressed as ng luciferase/g liver measured 4 hours after administration, as described in Example 1 or as μg IgG/mL serum measured 24 hours after administration, as described in Example 2. Compound numbers in Table 2 refer to the compound numbers of Table 1.

Structure (SMILES): CCCCCCCCCCN(CCCCCCCCCC)C(=O)CCCCCCCN(C)CCCCCCCC(=O)NCCCCCC(=O)OCC(CCCCCC)CCCCCCCC (centres unmarked) [Compound I-3, 2-Hexyldecyl 6-(8-((8-(Didecylamino)-8-Oxooctyl)(Methyl)Amino)Octanamido)Hexanoate]
- Liver Luc (ng/g) @ 0.3 mg/kg ([1]; 0.3 mg mRNA/kg): 8191 ± 2369 ng/g
- Liver Luc (ng/g) @ 1.0 mg/kg ([1]; 1.0 mg mRNA/kg): 25381 ± 4022 ng/g

Structure (SMILES): CCCCCCCCCCCCCCCCN(CCCN(C)CCCCCCCC(=O)N(CCCCCCCCCC)CCCCCC(=O)OCC(CCCC)CCCCCC)C(=O)CCCCC(=O)OCC(CCCCCC)CCCCCCCC (centres unmarked) [Compound I-38, 2-Hexyldecyl 6-((3-((8-((6-((2-Butyloctyl)Oxy)-6-Oxohexyl)(Decyl)Amino)-8-Oxooctyl)(Methyl)Amino)Propyl)(Hexadecyl)Amino)-6-Oxohexanoate]
- Serum IgG (μg/mL) @ 0.3 mg/kg [2]: 21.9 ± 8.8 µg/mL

Structure (SMILES): CCCCCCCCCCN(CCCCCC(=O)OCC(CCCCCC)CCCCCCCC)C(=O)CCCCCCCN(C)CCCCCCCC(=O)N(CCCCCCCCCC)CCCCCC(=O)OCC(CCCCCC)CCCCCCCC (centres unmarked) [Compound I-40, Bis(2-Hexyldecyl) 6,6′-((8,8′-(Methylazanediyl)Bis(Octanoyl))Bis(Decylazanediyl))Dihexanoate]
- Serum IgG (μg/mL) @ 0.3 mg/kg [2]: 13.8 ± 6.0 µg/mL

Structure (SMILES): CCCCCCCCC(CCCCCC)COC(=O)CCCCCN(CCCCCCCC)C(=O)CCCCCCCN(C)CCCCCCCC(=O)N(CCCCCCCC)CCCCCC(=O)OCC(CCCCCC)CCCCCCCC (centres unmarked) [Compound I-41, Bis(2-Hexyldecyl) 6,6′-((8,8′-(Methylazanediyl)Bis(Octanoyl))Bis(Octylazanediyl))Dihexanoate]
- Serum IgG (μg/mL) @ 0.3 mg/kg [2]: 19.2 ± 6.8 µg/mL

Structure (SMILES): CCCCCCCCC(CCCCCC)COC(=O)CCCCCN(CCCCCCCCN(C)CCCCCCCCN(CCCCCC(=O)OCC(CCCCCC)CCCCCCCC)C(=O)CCCCC)C(=O)CCCCC (centres unmarked) [Compound I-43, Bis(2-Hexyldecyl) 6,6′-(((Methylazanediyl)Bis(Octane-8,1-Diyl))Bis(Hexanoylazanediyl))Dihexanoate]
- Serum IgG (μg/mL) @ 0.3 mg/kg [2]: 49.9 ± 14.8 µg/mL

Structure (SMILES): CCCCCCCCC(CCCCCC)COC(=O)CCCCC(=O)N(CCCCCC)CCCCCCCCN(C)CCCCCCCCN(CCCCCC)C(=O)CCCCC(=O)OCC(CCCCCC)CCCCCCCC (centres unmarked) [Compound I-45, Bis(2-Hexyldecyl) 6,6′-(((Methylazanediyl)Bis(Octane-8,1-Diyl))Bis(Hexylazanediyl))Bis(6-Oxohexanoate)]
- Serum IgG (μg/mL) @ 0.3 mg/kg [2]: 18.3 ± 4.6 µg/mL

Structure (SMILES): CCCCCCCCC(CCCCCC)COC(=O)CCCCCN(CCCCCC)C(=O)CCCCCN(C)CCCCCCCC(=O)N(CCCCCC)CCCCCCOC(=O)C(CCCCCC)CCCCCCCC (centres unmarked) [Compound I-46, 7,23,32-Trihexyl-16-Methyl-8,22,29-Trioxo-30-Oxa-7,16,23-Triazatetracontyl 2-Hexyldecanoate]
- Serum IgG (μg/mL) @ 0.3 mg/kg [2]: 34.4 ± 11.3 µg/mL

Structure (SMILES): CCCCCCCCC(CCCCCC)COC(=O)CCCCCN(CCCCCC)C(=O)CCN(C)CCC(=O)N(CCCCCC)CCCCCC(=O)OCC(CCCCCC)CCCCCCCC (centres unmarked) [Compound I-48, Bis(2-Hexyldecyl) 6,6′-((3,3′-(Methylazanediyl)Bis(Propanoyl))Bis(Hexylazanediyl))Dihexanoate]
- Serum IgG (μg/mL) @ 0.3 mg/kg [2]: 27.5 ± 12.7 µg/mL

Structure (SMILES): CCCCCCCCC(CCCCCC)COC(=O)CCCCCCCCCN(CCCCCC)C(=O)CCCN(C)CCCC(=O)N(CCCCCC)CCCCCCCCCC(=O)OCC(CCCCCC)CCCCCCCC (centres unmarked) [Compound I-50, Bis(2-Hexyldecyl) 10,10′-((4,4′-(Methylazanediyl)Bis(Butanoyl))Bis(Hexylazanediyl))Bis(Decanoate)]
- Serum IgG (μg/mL) @ 0.3 mg/kg [2]: 11.6 ± 8.2 µg/mL

Structure (SMILES): CCCCCCCCC(CCCCCC)COC(=O)CCCCCN(CCCCCC)C(=O)CCCN(C)CCCC(=O)N(CCCCCC)CCCCCC(=O)OCC(CCCCCC)CCCCCCCC (centres unmarked) [Compound I-52, Bis(2-Hexyldecyl) 6,6′-((4,4′-(Methylazanediyl)Bis(Butanoyl))Bis(Hexylazanediyl))Dihexanoate]
- Serum IgG (μg/mL) @ 0.3 mg/kg [2]: 13.0 ± 4.1 µg/mL

— patent publication US20250025427A1, “MIXED AMIDE ESTER CONTAINING LIPIDS FOR USE IN LIPID NANOPARTICLES” (Acuitas Therapeutics, Inc., priority 2023, published 2025)
